Results from patent US20110086035A1, “IMMUNOTHERAPEUTIC METHODS AND MOLECULES” (priority 2008, published 2011).
Like-named read-outs stand apart in the source and are kept apart here.

B1: recombinant Asp f1-H136L protein: FLAG-tagged recombinant A. fumigatus Asp f1 ribotoxin with point mutation His136Leu, without leader sequence (protein, UniProt P67875 28-176, looked up, variant H136L)
Ribonuclease mitogillin: ATWTCINQQLNPKTNKWEDKRLLYSQAKAESNSHHAPLSDGKTGSSYPHWFTNGYDGNGKLIKGRTPIKFGKADCDRPPKHSQNGMGKDDHYLLEFPTFPDGHDYKFDSKKPKEDPGPARVIYTYPNKVFCGIVALQRGNQGDLRLCSH
modifications: FLAG tag

Key:
[1] = system: Asp f16-specific T cell lines of HLA-DRB1*04-positive donors; assay: Restimulation of Asp f16-specific T cell lines with peptide-pulsed autologous monocytes, IFN-γ ELISA; format: cell-based, human; conditions: T cell lines of 3 HLA-DRB1*04-positive donors; monocytes pulsed with 1 μg/ml peptide; 24 h; FIG. 2B
Procedure: (§1) Antigen-specific T cell lines were generated by incubation of 1×10^7 whole PBMC per well in 6-well cell culture plates with 5 μg/ml recombinant protein or 1 μg/ml peptide antigen for 7 days. Lymphocyte cultures were supplemented with 5 U/ml IL-2 (Proleukin, Chiron, Ratingen, Germany) every other day and culture medium replenished as needed.
(§2) Autologous monocytes were isolated from whole PBMC by allowing cells to adhere to tissue culture dishes for 2 hours and subsequent extensive washing to remove non-adherent cells. For presentation of protein antigen, monocytes were cultured overnight in the presence of 5 μg/ml recombinant protein and harvested by mechanical abrasion the next day. For presentation of peptide antigen, monocytes were incubated overnight without antigen and mature cells harvested and pulsed with 1 μg/ml peptide antigen for 1 hour. Transduced autologous B cells were used as antigen-presenting cells (APC) after repeated culture on gamma-irradiated human CD40L-transfected feeder cells. […]
(§3) In order to define a common MHC class II epitope of the Asp f16 protein, lymphocyte donors were screened for the expression of the most abundant MHC class II allele HLA-DRB1*04 and Asp f16-specific T cell lines generated as described. […] All T cell cultures were then exposed to both peptide and recombinant protein for 24 hours and IFN-γ production quantified.

[2] = system: PBMC from HLA-DRB1*04-positive donors; assay: Criss-cross restimulation of T cell lines generated with FHT peptide or recombinant Asp f16 protein, IFN-γ; format: cell-based, human; conditions: lines generated for one week with peptide or protein, exposed to both for 24 hours; FIG. 2C
Procedure: as §1, §2, §3

[3] = system: FHT-specific CD4+ T cell clones; assay: Restimulation of FHT-specific CD4+ T cell clones with antigen-loaded dendritic cells, IFN-γ ELISA; format: cell-based, human
Procedure: For generation of antigen-specific T cell clones PBMC were stimulated repeatedly with 1 μg/ml FHT peptide once weekly for 4 weeks. Subsequently T cell clones were generated by limiting dilution in 96-well plates and expanded using the rapid expansion protocol as described by Beck et al^14. A CMVpp65-specific CD4^+ T cell clone used in control experiments was generated accordingly by limiting dilution of T cells stimulated with pp65 peptide antigen (kindly provided by Jan Diekmann).
(§4) Dendritic cells (DC) were generated from monocytes by addition of 500 U/ml GM-CSF (PromoCell, Heidelberg, Germany) and 700 U/ml IL-4 (R&D systems, Wiesbaden-Nordenstadt, Germany) to the culture medium. Immature dendritic cells were incubated for 24 hours with either live A. fumigatus or C. albicans conidia or fungus killed by treatment with ethanol 0, 4, 8 or 12 hours after germination and subsequently co-incubated, with Aspergillus peptide-specific T cell clones for further 24 hours. Dendritic cells used for presentation of protein or peptide antigen were induced to mature by addition of 25 ng/ml TNF-α, 5 ng/ml IL-1β, 10 ng/ml IL-6 (all R&D systems, Wiesbaden-Nordenstadt, Germany) and 1 μg/ml PGE2 (Pharmacia, Ratingen, Germany) prior to antigen-pulsing and co-incubation with antigen-specific T cells. […]

HLA-DRB1*04 = assay: Binding to HLA-DRB1*04; design: species or system human
Text: Whether or not a peptide binds to HLA-DRB1*04 may be determined using any method known in the art. A suitable method is shown in Example 1, with particular reference to FIG. 2B. One method is to introduce the peptide into PBMCs taken from an HLA-DRB1*04 human and determine whether an activating or proliferative response is obtained which is indicative of binding. Binding to HLA-DRB1*04 may also be assessed using the methods described in FIGS. 7 and 8.
(§5) Using limiting dilution, individual T cell clones were generated. Following expansion, the clones were either left un-stimulated, stimulated with FHT peptide or stimulated with HLA restricted FHT loaded LCL. IFNg production was then measured in a standard ELISA.

T cells specific for FHT = assay: DRB1*0401/FHT multimer staining of FHT-expanded cell lines; format: cell-based, human; conditions: PBMC of 3 donors (two DRB1*0401, one DRB1*0408) expanded 14 or 21 days; FHT bound to multimer of DRB1*0401; FIG. 7
Text: FIG. 7. Cell lines expanded using the FHT peptide contain T cells that bind specifically to the FHT peptide in the context of DRB1*0401. PBMC from 3 different donors were expanded with the FHT peptide for 14 or 21 days (IVS—In vitro stimulation). Two of the donors were DRB1*0401 positive and one was DRB1*0408 positive.
PBMC from 3 different donors were expanded with the FHT peptide for 14 or 21 days (IVS—In vitro stimulation). Two of the donors were DRB1*0401 positive and one was DRB1*0408 positive.

T cell clones = assay: IFNg ELISA of T cell clones stimulated with FHT peptide or FHT loaded HLA restricted LCL; format: cell-based, human; conditions: in all but one of the clones; FIG. 8
Procedure: FIG. 8. […] Using limiting dilution, individual T cell clones were generated. Following expansion, the clones were either left un-stimulated, stimulated with FHT peptide or stimulated with HLA restricted FHT loaded LCL. IFNg production was then measured in a standard ELISA.
as §5

A. fumigatus conidia = assay: Confrontation assay: killing of A. fumigatus conidia by monocytes pre-incubated with T cell supernatant; format: cell-based, Aspergillus fumigatus; conditions: monocytes pre-incubated with supernatant of T cell clones activated with FHT peptide-pulsed APC; 3 hours; FIG. 5
Procedure: as §4, with “cells. In one experiment the antigen-presenting dendritic cells fed with live Aspergillus conidia were incubated with either 25 μg/ml control antibody or MHC class II blocking antibody (No 555556, BD Biosciences, Heidelberg, Germany) for 1 hour prior to addition of the T cells. Antibody also remained present during the 24 hours co-incubation of T cells with antigen-presenting DC.” for “cells.”
Killing of A. fumigatus conidia by monocytes was quantified using confrontation assays. […] Each experimental setting was determined in quadruple. […] Colonies were quantified after incubation at 37° C. over night. […]

PBMC from healthy donors = assay: Restimulation of T cell lines generated with recombinant protein, IFN-γ ELISA; format: cell-based, human; conditions: PBMC of 4 healthy donors; significant = at least 50 pg/ml and/or more than 5-fold increase over unstimulated; FIG. 1A/1B
Procedure: Blood was obtained from HLA-DRB1*-typed healthy donors after informed consent. Peripheral blood mononuclear cells (PBMC) were isolated via centrifugation in Biocoll Separating Solution (Biochrom, Berlin, Germany) and either used directly after preparation or cryopreserved for later use. Cells were cultured in RPMI 1640 with L-Glutamine (Invitrogen, Karlsruhe, Germany), supplemented with 10% heat-inactivated, pooled human serum and 100 U/ml Penicillin-Streptomycin (Invitrogen, Karlsruhe, Germany).
as §1
Autologous monocytes were isolated from whole PBMC by allowing cells to adhere to tissue culture dishes for 2 hours and subsequent extensive washing to remove non-adherent cells. […]
PBMC from 4 different healthy donors, were stimulated for 7 days with purified recombinant Asp f1-H136L or Asp f16 protein. The generated T cell lines were then re-exposed for 24 hours to both proteins and the amount of secreted IFN-γ quantified in the supernatant by IFN-γ ELISA. […]

phoenix GALV = format: cell-based, human; conditions: point mutation His136Leu versus Asp f1
Text: The gene encoding the A. fumigatus Asp f16 protein (NCBI accession number AY169706) was cloned into the eukaryotic expression vector pcDNA3.1-TOPO (Invitrogen, Karlsruhe, Germany) with N- and C-terminal FLAG®-Tag (Sigma-Aldrich, Muenchen, Germany). The gene was amplified from cDNA kindly provided by Utz Reichard (University of Goettingen, Germany). The gene encoding Asp f1 protein (NCBI accession number M83781) was cloned accordingly, omitting the leader sequence (cDNA kindly provided by Prof. Dr. Stefan Stevanović, University of Tuebingen, Germany).
pcDNA3.1-aspf16-FLAG and pcDNA3.1-aspf1-H136L-FLAG expression vector was introduced into the transgenic human cell line phoenix GALV^20 via calcium phosphate transfection. Parental as well as transfected producer cells were cultivated in DMEM medium (Invitrogen, Karlsruhe, Germany) supplemented with 10% heat-inactivated fetal calf serum (FCS, Biochrom, Berlin, Germany) and 100 U/ml Penicillin-Streptomycin (Invitrogen, Karlsruhe, Germany). 24 hours after transfection transgene expression from the CMV promoter of the expression vector was enhanced by addition of 1 mM sodium butyrate (Sigma-Aldrich, Muenchen, Germany) to the culture medium^21.
Recombinant Asp f1 and Asp f16 proteins were produced in a eukaryotic expression system and purified by standard methods via introduced FLAG-Tags. […]

Row | Molecule | IFN-γ production in response to peptide [1] | specific cytokine (IFN-γ) production after restimulation with peptide and recombinant protein [2] | IFN-γ production of FHT-specific CD4+ T cell clones in response to DC ([3]; autologous DC pulsed with synthetic peptide, 24 h, FIG. 3A) | binding to HLA-DRB1*04 (HLA-DRB1*04) | binding to HLA-DRB1*04 (HLA-DRB1*04; listed as FHT) | detection of FHT specific T cells by multimer staining (T cells specific for FHT) | IFNg production with FHT loaded HLA restricted LCL compared to peptide alone (T cell clones) | fungal survival after phagocytosis by monocytes (A. fumigatus conidia) | IFN-γ after one week of stimulation and 24 h re-exposure to recombinant protein (PBMC from healthy donors) | cross-reactivity of Asp f16-specific CD4+ TH1 T cell clones to pulsed APC ([3]; APC pulsed with purified protein) | cytotoxicity in the producing cell line (phoenix GALV)
1 | FHTYTIDWTKDAVTW [FHT peptide] | abundant production of IFN-γ | specific cytokine production could be detected | high amounts of IFN-γ | has been shown to bind to HLA-DRB1*04 | specifically binds HLADRB1*04 | can be detected by DRB1*0401/FHT multimer staining | greatly increased specific cytokine production | significantly reduce fungal survival | – | – | –
2 | B1 | – | – | – | – | – | – | – | – | only one of 4 donors responded robustly | not cross-reactive | nearly abolished cytotoxicity
